Data: patent US10059671B2, “Positive allosteric modulators of mGluR3” (Merck Patent GmbH, priority 2013, dated 2018)

molecular target: mGluR3 (Homo sapiens, UniProt Q14832); assay: HEK293T-mGluR3-Gqi5 Calcium Mobilization Assay; assay type: cell-based; conditions: HEK293T-mGluR3-Gqi5 stable cell line; FLIPR Ca2+ fluorescence; with L-glutamate at EC20 concentration
Method: II. Biological Assays HEK293T-mGluR3-Gqi5 Calcium Mobilization Assay Reagents: • Cells: HEK293T-mGluR3-Gqi5 Stable Cell Line (MultiSpan cat# CG1190) Culture Medium: • DMEM-GlutaMAX-1 (GIBCO #10566)+10% FBS (dialyzed & heat-inactivated, Hyclone cat# SH 30079.03), 2 mM sodium pyruvate (GIBCO #11360), 1 μg/ml puromycin (GIBCO #0399) and 250 ug/ml hygromycin (GIBCO #10687-010) HBSS (GIBCO #14025), add HEPES at 20 mM for a pH of 7.4 • 384 well cell plate: poly-D-lysine-coated, black/clear bottom microplates (Corning cat#3845) • Ca^2+ dye: FLIPR Ca-4 assay kit (Molecular Devices cat# R8142) • L-Glutamate (Sigma cat #2834) Cell Plating • Plate 8000 cells per well (1×10^5 cells/ml, in 80 μl) in a black, clear bottom, 384 well plate (Corning 3845). Incubate the cell plate for 30 minutes at RT and then incubate the cells 37° C., 5% CO2 for 16-24 hours before the assay. Ca^2+ Assay Using the FLIPR • Wash the cells with HBSS 3 times using the Bravo automated pipettor. The remaining volume of HBSS is 20 μl per well. • Add 20 μl of dye loading solution to each well and incubate the cells at 37° C., 5% CO2 for 1 hour. Prepare Compound Plate: • Serial dilute test compounds in DMSO at a 1:4 ratio, starting at al 0 mM concentration. Transfer 500 nl of the diluted compounds to a Matrix plate and add 30 μl of 37° C. HBSS, by Multidrop, to each well. The final starting concentration of the compounds is 33 uM. Prepare a solution of L-Glutamate in HBSS at 5× the EC20 concentration. Transfer to a 384 well Matrix plate using a Multidrop. The EC20 concentration is determined by a test plate before the screen. Assay: • Ca^2+ fluorescence is measured in the cells using the FLIPR Tetra (Molecular Devices). Following a baseline recording of the wells for 1 minute, add 10 ul of the diluted (5×) compounds to the cell plate and record for 3 minutes.

Sequence of mGluR3 (Q14832 23-879): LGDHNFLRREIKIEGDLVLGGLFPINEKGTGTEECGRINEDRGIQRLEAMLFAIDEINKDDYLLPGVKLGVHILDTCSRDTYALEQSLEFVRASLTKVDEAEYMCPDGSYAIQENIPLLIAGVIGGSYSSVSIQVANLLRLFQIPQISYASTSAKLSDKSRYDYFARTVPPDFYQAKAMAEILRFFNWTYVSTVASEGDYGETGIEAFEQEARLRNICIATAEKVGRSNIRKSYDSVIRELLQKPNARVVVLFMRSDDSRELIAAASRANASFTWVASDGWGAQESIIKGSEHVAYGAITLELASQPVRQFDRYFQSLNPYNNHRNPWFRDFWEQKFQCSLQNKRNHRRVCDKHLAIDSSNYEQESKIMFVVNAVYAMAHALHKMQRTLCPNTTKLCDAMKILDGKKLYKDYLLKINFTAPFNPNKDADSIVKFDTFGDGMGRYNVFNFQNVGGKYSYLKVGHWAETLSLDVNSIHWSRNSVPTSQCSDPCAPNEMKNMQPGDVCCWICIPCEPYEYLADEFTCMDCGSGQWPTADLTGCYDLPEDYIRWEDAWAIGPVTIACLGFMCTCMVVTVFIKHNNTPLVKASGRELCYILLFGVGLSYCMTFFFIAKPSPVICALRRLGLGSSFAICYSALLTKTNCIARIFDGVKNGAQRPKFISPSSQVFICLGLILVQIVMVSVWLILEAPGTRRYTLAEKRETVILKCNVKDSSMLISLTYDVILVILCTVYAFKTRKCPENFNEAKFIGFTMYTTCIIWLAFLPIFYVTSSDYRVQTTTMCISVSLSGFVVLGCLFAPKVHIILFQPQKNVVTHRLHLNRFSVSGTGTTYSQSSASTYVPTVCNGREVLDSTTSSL

Row | SMILES | EC50
1 | CCCc1nc(NCCN2CCOCC2)c(C#N)c2c1CCCC2 [Compound 5] | 1000 to 10000 nM
2 | CCCc1nc(NCCO)c(C#N)c2c1CCCC2 [Compound 6] | 1000 to 10000 nM
3 | CCc1nc(NCCCO)c(C#N)c2c1CCCC2 [Compound 7] | 1000 to 10000 nM
4 | CCc1nc(NCCN)c(C#N)c2c1CSC(C)(C)C2 [Compound 8] | 1000 to 10000 nM

Continued, values first:

Row | EC50 | SMILES
5 | < 1000 nM | CC(C)c1nc(N2CCOCC2)c(C#N)c2c1CCCC2 [Compound 1, 1-Isopropyl-3-morpholin-4-yl-5,6,7,8-tetrahydroisoquinoline-4-carbonitrile]
6 | 1000 to 10000 nM | CCCc1nc(N2CCOCC2)c(C#N)c2c1COC(C)(C)C2 [Compound 2]
7 | 1000 to 10000 nM | CCc1nc(N2CCOCC2)c(C#N)c2c1CCCC2 [Compound 3]
8 | 1000 to 10000 nM | N#Cc1ccc(-c2ccccc2)nc1N1CCOCC1 [Compound 4]
